Measured values as given in patent publication US20170044150A1, “IDENTIFICATION OF COMPOUNDS WHICH INHIBIT ATG8-ATG3 PROTEIN-PROTEIN INTERACTION AND THEIR USE AS ANTIPARASITICAL AGENTS” (THE JOHNS HOPKINS UNIVERSITY, priority 2014, published 2017).
Read-outs that look alike come from different tables or passages of the source.

How the values were obtained:
[1] = test system: P. falciparum 3D7 blood stages; settings: asterisk / PubChem reported values; read-out: IC50 Blood stage, derived from the literature; cited from earlier work
[2] = test system: PfAtg8-PfAtg3 interaction; test: SPR protein-protein interaction assay, PfAtg8-PfAtg3 (VLS compounds); type: binding, P. falciparum; settings: 500 μM
Protocol: Surface Plasmon Resonance (SPR) protein-protein interaction assay. All measurements were carried out on a BiaCore 3000 instrument. We used the previously described SPR competition assay to test inhibition of the PfAtg8-PfAtg3 and hLC3-hAtg3 interaction. The standard running buffer was 10 mM HEPES, 150 mM NaCl, 0.01% Tween 20, adjusted to pH 7.5. Prior to performing SPR assays, all solutions were sterile filtered and degassed for 1 h at room temperature. For small molecule inhibitor studies, the same running buffer was supplemented with 1% DMSO. All dose dependency measurements were carried out in triplicate and corrected for DMSO absorption effects using double referencing with interspersed blank injections and an untreated flow cell on the SPR chip and the SPR analysis software Scrubber 2.0 (BioLogics). For each interaction pair, a new CM5 SPR chip was used. To exclude surface decay during the experiment, positive control injections were interspersed every 12th injection. For all interaction studies, the Atg3 homologue was immobilized and the corresponding Atg8 partner was passed as an analyte over the chip in either the presence or absence of small molecule inhibitors, dissolved to 100 mM in 100% DMSO and tested at 500 μM final concentration. Prior to the immobilization of Atg3 to an SPR chip, a pH scouting from pH 6.0 to pH 4.0 in intervals of 0.5 pH units was carried out to determine the best pre-concentration conditions for immobilization. Briefly, flow cells of an SPR chip were activated using N-hydroxysuccinimide (NHS) and 1-ethyl-3-(3-dimethylaminopropyl)carbodiimide (EDC) for 7 min with a flow rate of 20 μl/min. For PfAtg3 immobilization, a solution of 50 μg/ml of PfAtg3 in 10 mM sodium acetate pH 5.0 was passed over one flow cell until >500 Response Units (RU) were captured. The same procedure was followed for the immobilization of hAtg3. Activated free binding sites on the chip were blocked using 1 M ethanolamine for an additional 7 min. All experiments were carried out at 25° C. with a 40 μl/min flow rate and 75 s contact time, followed by a 1 min dissociation time and a 25 μl regeneration injection of 2 M MgCl2.
The dose-response curves were used to determine the approximate concentration of analyte (PfAtg8 or hLC3) needed to obtain a particular response unit (RU), typically in the range of 100-150 RU's. A fixed amount of analyte was then passed over the chip resulting in at least 100-150 response units (RU) in the absence of small molecules.

[3] = test system: P. falciparum 3D7; test: SYBR Green I growth inhibition assay, blood stage; type: cell-based; settings: Plasmodium falciparum
Protocol: P. falciparum blood stage culturing. P. falciparum 3D7 and FCR3 cultures were maintained using modified, previously published methods at 37° C., 2% hematocrit of human red blood cells (Science 1976, 193, 673-675). Complete culture media consisted of sterile RPMI 1640 media (Life Technologies), supplemented with 10% human serum, 0.005% hypoxanthine, and buffered with final concentrations of 0.6% HEPES and 0.26% NaHCO3. The FCR3 strain was maintained at 3% CO2 and 5% O2, 92% N2 atmosphere, while the 3D7 strain was maintained at 5% CO2, 5% O2, 90% N2 atmosphere.
SYBR Green I growth inhibition assay. 10 μL of 10× compound diluted in RPMI 1640 media (Gibco) with a constant concentration of 1% DMSO was added to a 96 well plate (Costar), 90 μL of 1.5% ring stage, synchronized with 5% w/v sorbitol P. falciparum 3D7 parasites, 1% hematocrit, in culture media with 10% v/v human serum with 10 μg/mL gentamycin. Each compound concentration and 1% v/v DMSO controls were run in triplicate. Plates were incubated at 37° C. in 5% O2, 5% CO2 and 90% N2 for 72 hours. Plates were frozen, thawed, and incubated with 100-μL 2× SYBR green in lysis buffer (20 mM Tris pH 7.5, 5 mM EDTA, 0.008% Saponin, 0.08% TritonX-100) in the dark for at least one hour. Fluorescence was measured with a plate reader (HTS 7000, Perkin Elmer) at excitation/emission wavelengths of 485/535 nm.
Plasmodium parasite growth inhibition assay. P. falciparum 3D7 parasites were cultured as previously described (J Med Chem 57:4521-4531(2014)). Briefly, the parasites were cultured in 10% v/v human serum with 10 μg/mL gentamycin and synchronized with 5% w/v sorbitol. 1.5% ring stage parasites were added to 96 well plates (Costar) containing serial dilutions, performed in triplicate, of compound in RPMI 1640 media (Gibco). Plates were incubated at 37° C. in 5% O2, 5% CO2, and 90% N2 for 72 h. Plates were frozen, thawed, and incubated with 100 μL 2× SYBR green in lysis buffer (20 mM Tris pH 7.5, 5 mM EDTA, 0.008% Saponin, 0.08% TritonX-100) in the dark for 1 h. Fluorescence was measured with a plate reader (HTS 7000, PerkinElmer) at excitation/emission wavelengths of 485/535 nm.

[4] = target: PfAtg8-PfAtg3 interaction (Plasmodium falciparum, UniProt Q8IJK2); type: binding, P. falciparum
[5] = inhibition of PfAtg8-PfAtg3 interaction

PfAtg8-PfAtg3 interaction (Plasmodium falciparum, UniProt Q8IJK2), sequence (Q8IJK2 whole entry C32I/C119S/C122S, form open): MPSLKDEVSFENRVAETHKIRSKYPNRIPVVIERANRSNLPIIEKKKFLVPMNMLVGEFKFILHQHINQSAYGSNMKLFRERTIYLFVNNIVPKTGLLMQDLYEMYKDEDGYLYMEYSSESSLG

Compound: O=C(Nc1nc(-c2ccccn2)cs1)c1ccccc1Br [Compound 3, 2-bromo-N-(4-pyridin-2-yl-1,3-thiazol-2-yl)benzamide]
- IC50 [1]: 1580 nM

Compound: O=C(NCc1csc(-c2cnccn2)n1)c1cc2sccc2[nH]1 [Compound C30, N-([3-(pyrazin-3-yl)-1,3-thiazol-4-yl]methyl)-4H-thieno[3,2-b]pyrrole-5-carboxamide]
- precipitation at the concentration used in the assay [2]: either precipitated or caused protein precipitation

Compound: COC(OC)c1ccc(C(=O)Nc2nc(-c3ccccn3)cs2)cc1 [Compound 9, 4-(Dimethoxymethyl)-N-[4-(pyridin-2-yl)-1,3-thiazol-2-yl]benzamide]
- IC50 ([3]; 3D7, two to three experiments, read-out: average IC50): 1480 ± 600 nM

Compound: O=C(NCC1Cc2cccc(-c3ccncc3)c2O1)c1csc2c1CCCC2 (stereo not shown) [Compound C11]
- precipitation at the concentration used in the assay [2]: either precipitated or caused protein precipitation

Compound: CSc1ccccc1C(=O)Nc1nc(-c2ccccn2)cs1 [Compound 2, 2-methylsulfanyl-N-(4-pyridin-2-yl-1,3-thiazol-2-yl)benzamide]
- IC50 [1]: 200 nM
- LEAN (SPR) ([4]; -log (IC50)/number of heavy atoms): 0.22
- IC50 ([4]; read-out: IC50 SPR, inhibition of PfAtg8-PfAtg3 interaction): 15000 nM

Compound: CN(C)c1ccc(N2C(N)=NC(N)=NC2(C)C)cc1 [Compound 5, 1-[4-(dimethylamino)phenyl]-6,6-dimethyl-1,3,5-triazine-2,4-diamine]
- IC50 SPR [4, 5]: None

Compound: CCN(CC)CCCC(C)Nc1ccnc2cc(Cl)ccc12 (stereo not shown) [chloroquine, reference compound]
- IC50 ([3]; 3D7): 3 ± 2 nM

Compound: CCc1c(C(=O)NCc2csc(-c3cnccn3)n2)[nH]c2ccccc12 [Compound C19, 3-ethyl-N-([2-(pyrazin-2-yl)-1,3-thiazol-4-yl]methyl)-1H-indole-2-carboxamide]
- precipitation at the concentration used in the assay [2]: either precipitated or caused protein precipitation

Compound: Cc1ccc(-c2cc3c(SCC(=O)Nc4cc(C(F)(F)F)ccc4Cl)nccn3n2)cc1 [Compound 4, N-[2-chloro-5-(trifluoromethyl)phenyl]-2-[2-(4-methylphenyl)pyrazolo[1,5-a]pyrazin-4-yl]sulfanylacetamide]
- IC50 SPR [4, 5]: None

Compound: O=C(NCc1ccco1)C1CCN(S(=O)(=O)c2ccc(Br)cc2)CC1 [Compound C13, 1-(4-bromobenzene-sulfonyl)-N-(furan-2-ylmethyl)piperidine-4-carboxamide]
- precipitation at the concentration used in the assay [2]: either precipitated or caused protein precipitation

Compound: Brc1ccc(Nc2nc3ccccc3nc2Nc2ccc(Br)cc2)cc1 [Compound 6, 2-N,3-N-bis(4-bromophenyl)quinoxaline-2,3-diamine]
- IC50 SPR [4, 5]: None
